Literature values, collected in patent US20230301939A1, “NOVEL FO[…]” (Neurocentrx Pharma Ltd., priority 2018, published 2023).
Read-outs that look alike come from different tables or passages of the source.

Columns and labels:
[1] = system: mice
[2] = molecular target: T1, a7 nicotinic acetylcholine receptor (Rattus norvegicus, UniProt Q05941); details: for Negative allosteric modulator activity in words: KXa7R1 cell line, ketamine at the same concentrations (<1 μM)
T1 construct: expressed in transfected cells; host or cells: KXa7R1 cell line (HEK293)

[3] = in vivo

T1 sequence (Q05941 23-502): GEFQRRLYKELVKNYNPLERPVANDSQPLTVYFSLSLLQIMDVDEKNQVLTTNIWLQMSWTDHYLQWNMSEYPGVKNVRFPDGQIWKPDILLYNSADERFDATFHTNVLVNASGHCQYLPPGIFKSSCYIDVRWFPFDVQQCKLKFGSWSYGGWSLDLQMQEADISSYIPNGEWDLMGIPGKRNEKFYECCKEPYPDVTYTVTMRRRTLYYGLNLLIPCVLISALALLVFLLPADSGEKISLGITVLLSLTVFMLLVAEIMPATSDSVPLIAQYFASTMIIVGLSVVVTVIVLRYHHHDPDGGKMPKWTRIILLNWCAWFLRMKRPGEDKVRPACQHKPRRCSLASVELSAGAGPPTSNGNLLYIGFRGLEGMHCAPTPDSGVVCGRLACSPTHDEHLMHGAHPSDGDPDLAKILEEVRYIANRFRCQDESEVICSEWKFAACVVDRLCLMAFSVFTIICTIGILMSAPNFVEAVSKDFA

With N[C@@]1(c2ccccc2Cl)CCC[C@@H](O)C1=O [(2R,6R)-HNK] as the compound, how does the “Antidepressant(-like) effect” value [1] read?
The value was “ketamine-type antidepressant-like effects”.

For CNC1(c2ccccc2Cl)CCCCC1=O (centres unmarked) [Ketamine, ketamine], which Bioavailability (intramuscularly) is on record?
Its Bioavailability is 93%.

And the “Time to peak plasma concentrations” value (intramuscularly)?
The value was 5 to 15 min.

What about the Bioavailability (intranasally) of the same compound?
Its Bioavailability is 8-50%.

And the “Time to peak plasma concentrations” value (intravenously)?
The value was “within a minute”.

And the Bioavailability (oral route)?
Its Bioavailability is 17-20%.

What about the “Duration of action in a clinical setting” value (orally) of the same compound?
Its value is 4 to 6 h.

What about the “Time to peak plasma concentrations” value (orally) of the same compound?
Its value is 30 min.

What about the Bioavailability (rectally) of the same compound?
The Bioavailability was 30%.

What about the “Negative allosteric modulator activity in words” value [2] of the same compound?
Its value is “inactive”.

For CN[C@@]1(c2ccccc2Cl)CCCCC1=O [arketamine], which “Antidepressant(-like) effect” value [1] is on record?
Its value is “greater and lasted longer than that of esketamine”.

For NC1(c2ccccc2Cl)CCC=CC1=O (centres unmarked) [dehydronorketamine], which IC50 ([2]; KXa7R1 cell line (HEK293 cells transfected with rat nicotinic acetylcholine receptor genes)) is on record?
Its IC50 is 0.055 µM.

And the “Negative allosteric modulator activity in words” value [2]?
The value was “nanomolar potencies”.

For NC1(c2ccccc2Cl)CCCC(O)C1=O (centres unmarked) [hydroxynorketamine], which “Negative allosteric modulator activity in words” value [2] is on record?
The value was “nanomolar potencies”.

With NC1(c2ccccc2Cl)CCCCC1=O (centres unmarked) [norketamine] as the compound, how does the “Potency as an anesthetic relative to ketamine” value [3] read?
The value was “one-third to one-fifth as potent”.

And the “Plasma levels relative to ketamine” value (following oral administration of ketamine)?
The value was “three times higher”.

What about the “Negative allosteric modulator activity in words” value [2] of the same compound?
Its value is “nanomolar potencies”.
